In US4910225A, “Locally administrable therapeutic composition for inflammatory disease” (Senju Pharmaceutical Co., Ltd., priority 1988, dated 1990):

How the values were obtained:
[1] = tested on: atropine-resistant miosis; experiment: Atropine-resistant miosis after paracentesis; format: in vivo, albino rabbits
Description: (§1) The solutions of the following formulas were used.
(§2) Totally 28 male albino rabbits (4 rabbits×7 groups) with a body weight of about 2 kg werr used. They had been confirmed, before the experiment, to have mydriatic response to 1% atropine for at least 4 hours.
(§3) 50 μl each of 1% atropine solution was instilled into both eyes of the animals one hour before the 1st paracenthesis, in which approx. 0.2 ml/eye of aqueous humor (primary aqueous humor) was collected. Topical application of 50 μl each of the test drug solutions was conducted 30 min before the paracenthesis. Pupil diameter of each eye was measured with a slide caliper immediately before and 10 min after the paracenthesis. The 2nd paracenthesis was conducted 90 min after the 1st one, in which approx. 0.2 ml/eye of aqueous humor (secondary aqueous humor) was collected.

[2] = tested on: protein increase after paracentesis; experiment: Protein increase in aqueous humor after paracentesis; format: in vivo, albino rabbits; conditions: content 0.5%
Description: as §1, §2, §3

cyclooxgenase = conditions: cited from earlier work
[3] = tested on: carrageenin edema in rats; experiment: Carrageenin edema of the conjunctiva in rats; format: in vivo; conditions: 4 hours after carrageenin; for Weight of Edema: mean ± SE for 10 eyes
Description: 1. Sodium 3-(4-bromobenzoyl)-2-aminophenyl-acetate (hereinafter referred to as Compound [I])
2. Sodium 3-(4-chlorobenzoyl)-2-aminophenyl-acetate (hereinafter referred to as Compound [II])
3. Sodium 3-benzoyl-2-aminophenylacetate (hereinafter referred to as Compound [III])
Using female Wister rates weighing 100 g in groups of 5 animals or 10 eyes, 0.05 ml of 1% carrageenin (dissolved in physiological saline at 50° C.) as a phlogogen was injected beneath the conjuctiva of both eyes to induce edema. Physiological saline, as a control, and test drugs were respectively instilled into both eyes 40 and 20 minutes before and immediately after the injection of carrageenin, in the amount of 2.5 μl per dose. Four hours after the phlogogen treatment, each animal was sacrificed by cervical dislocation and in accordance with the method of Maistrello et al.^(2), the scalp was peeled off toward the eyelid and the edematous portion together with the skin was removed along the lid margin and weighed.
^(2) Maistrello et al.: Quantitative Effect of Topically Applied Anti-inflammatory Agents on External Ocular Inflammation in Rats: Journal of Pharmaceutical Science, volume 62, pp. 1455-60(1973).

For `COc1ccc2c(c1)c(CC(=O)O)c(C)n2C(=O)c1ccc(Cl)cc1` [Indomethacin, reference compound], the “Inhibitory activity on miosis after paracentesis” value ([1]; Compound [I] 0.0001-0.1%, indomethacin as high as 0.5%) was “little effect was observed”, the “Inhibition (miosis)” value ([1]; content 0.5%) was 6.0 ± 21.4% and the Miosis ([1]; content 0.5%, 10 min after paracentesis) was 16.4 ± 3.86%. For the same molecule, the “Inhibition (protein increase)” value [2] was 69.7% and the “Cyclooxygenase inhibitory activity” value (cyclooxgenase) was “strong cyclooxgenase inhibitory activity”.

For `Nc1c(CC(=O)[O-])cccc1C(=O)c1ccc(Cl)cc1.[Na+]` [Compound [II], Sodium 3-(4-chlorobenzoyl)-2-aminophenyl-acetate], the “Degree of inhibition (carrageenin edema)” value ([3]; 0.5%) was 36.9%, the “Weight of Edema” value ([3]; 0.5%) was 37.52 ± 2.423 mg and the “Degree of inhibition (carrageenin edema)” value ([3]; 1.0%) was 34.4%. The “Weight of Edema” value ([3]; 1.0%) was 39.02 ± 3.057 mg.

With `Nc1c(CC(=O)[O-])cccc1C(=O)c1ccccc1.[Na+]` [Compound [III], Sodium 3-benzoyl-2-aminophenylacetate] the “Degree of inhibition (carrageenin edema)” value ([3]; 1.0%) was 41.4%, the “Weight of Edema” value ([3]; 1.0%) was 30.98 ± 3.194 mg and the “Degree of inhibition (carrageenin edema)” value ([3]; 5.0%) was 37.9%. The “Weight of Edema” value ([3]; 5.0%) was 32.80 ± 2.409 mg.
